This note sets out measurements from PubChem BioAssay AID1996.

In brackets after ≈: the same amount, converted by molar mass. Bounds are passed on as bounds.

For the data set the following is noted: buffer; pH 7.4; 200.0 µM.
As a reminder, the kinetic solubility is the concentration staying in solution when a stock, usually in DMSO, is diluted into the medium. `O=C(Nc1cc(C(F)(F)F)ccc1Cl)c1cccnc1` yielded a solubility (kinetic) of 32.7 µg/mL (≈ 109 µM).
`CCOC(=O)c1cccc(NC(=O)c2cc3ccccc3o2)c1` yielded a solubility (kinetic) of 0.7 µg/mL (≈ 2.26 µM).
Compound `Cc1ccc(S(=O)(=O)N2CCCCC2)cc1NC(=O)c1cc(F)c(F)c(F)c1F` gave a kinetic solubility of 4.7 µg/mL (≈ 10.9 µM).
Turning to `Cc1ccc(C(=O)OCC(=O)NC(C)c2ccccc2)cc1C` (stereo not drawn), the solubility (kinetic) came out at 1.1 µg/mL (≈ 3.53 µM).
For `O=C(CCSc1ccc(Cl)cc1)NC1CCCC1` the value was 32.3 µg/mL (≈ 114 µM); for `COc1ccc(COC(=O)C2=C(C)NC(=O)NC2c2ccc(F)cc2)cc1` (stereo not drawn), 3 µg/mL (≈ 8.1 µM).
For `Fc1ccc2[nH]c3c(N4CCc5ccccc5C4)ncnc3c2c1` the value was 1.2 µg/mL (≈ 3.77 µM); for `C=CCn1cc(C=C2C(=O)NC(=O)NC2=O)c2ccccc21`, 3.6 µg/mL (≈ 12.2 µM); for `COc1nc(/C=C/N(C)C)c([N+](=O)[O-])c(OC)n1`, 17.2 µg/mL (≈ 67.7 µM).
To `N#C/C(=C\c1c[nH]c2ccccc12)C(=O)NC1CCCC1` belongs 1.8 µg/mL (≈ 6.44 µM); to `CN(C)c1ccc(NC(=O)CCN2C(=O)c3cccc([N+](=O)[O-])c3C2=O)cc1`, 42.4 µg/mL (≈ 111 µM).
For `Cc1cccc(NC(=O)C2CC3CCC2C3)c1C` (stereo not drawn), the solubility (kinetic) came out at 10.5 µg/mL (≈ 43.1 µM).
On to `CCCCCC(=O)NC(CC(=O)OC)c1ccc2c(c1)OCO2` (stereo not drawn), for which the solubility (kinetic) is greater than 48.2 µg/mL.
For `CC1CCCN(C(=O)c2ccc3c(c2)OCCO3)C1` (stereo not drawn) the value was greater than 39.2 µg/mL.
For `O=C(O)/C(=C\c1ccco1)NC(=O)c1ccc(Br)o1` the value was greater than 48.9 µg/mL.
To `COc1ccc(CNC(=O)CN2C(=O)NC3(CCCCCC3)C2=O)cc1` belongs greater than 53.9 µg/mL; to `Cl.N=C(N=C(N)N)N1CCOCC1`, greater than 31.1 µg/mL; to `Cn1cccc1C(=O)NC(=O)COC(=O)c1ccc(S(C)(=O)=O)c([N+](=O)[O-])c1`, 14.7 µg/mL (≈ 35.9 µM).
Take `C/C(CC(=O)Nc1ccccn1)=N\NC(=O)c1cnccn1`: the kinetic solubility was greater than 44.7 µg/mL.
For `COc1cc(C2SCC(=O)N2Cc2ccccc2)ccc1O` (stereo not drawn) the value was greater than 47.3 µg/mL.
With `COC(=O)c1cc(OC)c(OC)cc1N1C(=O)CC(C)(C)CC1=O`, the kinetic solubility was greater than 50.3 µg/mL.
For `CCCn1ccc(O)c(Cc2ccc(Cl)cc2)c1=O` the value was 7.3 µg/mL (≈ 26.3 µM); for `COc1ccc(N2C(=O)[C@@H]3C(c4cccnc4)=NO[C@@H]3C2=O)cc1`, 45 µg/mL (≈ 139 µM).
For `N#Cc1ccc(N=c2ssnc2Cl)cc1` the value was 4.2 µg/mL (≈ 16.6 µM).
Take `CCOc1ccc(/C=C(\C#N)C(=O)Nc2ccccn2)cc1`: the solubility (kinetic) is 2.7 µg/mL (≈ 9.2 µM).
For `Cc1ccnc(NC(=O)c2cnc(Cl)c(Cl)c2)c1` the value was 6.4 µg/mL (≈ 22.7 µM); for `CC(=O)Nc1ccc(NC(=O)C(C)OC(=O)C23CC4CC(CC(Cl)(C4)C2)C3)cc1` (stereo not drawn), 61.5 µg/mL (≈ 147 µM); for `Cc1ccc(C)c(NC(=O)C(c2ccccc2)N2CCN(CC(=O)N3CCOCC3)CC2)c1` (stereo not drawn), greater than 67.6 µg/mL.
For `COc1ccccc1NC(=S)N1CC(C)(C)C1=O` the value was 3 µg/mL (≈ 11.3 µM).
To `Cc1cc(C)cc(OCC(=O)Nc2ccc3c(c2)OCCO3)c1` belongs 2 µg/mL (≈ 6.38 µM); to `Cc1cccc(NC(=O)c2ccc(N3C(=O)C4CCCCC4C3=O)cc2)c1C` (stereo not drawn), 20.6 µg/mL (≈ 54.7 µM); to `Cc1cccc(C)c1-n1c(=O)n(Cc2ccccc2)c(=O)c2[nH]cnc21`, 20.4 µg/mL (≈ 58.9 µM).
`CC1C=CCC2C(=O)N(c3ccc(OC(=O)c4ccco4)cc3)C(=O)C12` (stereo not drawn) showed a kinetic solubility of 18 µg/mL (≈ 51.2 µM).
To `CC(=O)O.O=C(NCC1CCCCN1)c1cc(OCC(F)(F)F)ccc1OCC(F)(F)F` (stereo not drawn) belongs greater than 71.2 µg/mL; to `CN(C)c1ccc(C=C2C(=O)NC(=O)NC2=O)cc1[N+](=O)[O-]`, greater than 45.6 µg/mL; to `CCOc1ccc2oc(C(=O)Nc3ccc4c(c3)OCO4)c(C)c2c1`, 5.7 µg/mL (≈ 16.8 µM).
To `CCN(C(=S)Nc1cccnc1)c1ccccc1` belongs 36.3 µg/mL (≈ 141 µM); to `O=[N+]([O-])c1ccc(Cl)c(S(=O)(=O)n2ccnc2)c1`, greater than 43.2 µg/mL.
To `O=C(Nc1ccc2c(c1)OCO2)C1CC(=O)N(c2ccc3c(c2)OCCO3)C1` (stereo not drawn) belongs 3.6 µg/mL (≈ 9.41 µM); to `O=C(Nc1cccs1)Nc1cccnc1Cl`, greater than 38.1 µg/mL.
`Cc1cc(Oc2ccc(Cl)cc2)nc(-c2ccccn2)n1` had a kinetic solubility of 38.4 µg/mL (≈ 129 µM).
For `Cc1[nH]c2ccccc2c1C(O)CN1CCC2(CC1)OCCO2` (stereo not drawn) the value was greater than 47.5 µg/mL; for `S=C(NCc1ccco1)N1CCN(c2ccccc2Cl)CC1`, 19.5 µg/mL (≈ 58.1 µM); for `Cn1cnnc1SCC(=O)NC1CCCCCC1`, greater than 40.3 µg/mL.
To `CC1SCC(=O)N(CC(=O)NCCc2ccccc2)C1=O` (stereo not drawn) belongs greater than 46 µg/mL; to `O=C1NC(=O)C(=Cc2ccsc2)C(=O)N1`, greater than 33.3 µg/mL.
The compound `Cc1ccc(C)c(C(=O)Nc2nc3ccccc3[nH]2)c1` had a solubility (kinetic) of 0.4 µg/mL (≈ 1.51 µM).
For `O=C(NCc1ccccc1)c1c[nH]c2ccccc2c1=O` the value was 39.3 µg/mL (≈ 141 µM); for `Cc1cccc(-c2noc(CN(C)C(=O)c3ccco3)n2)c1`, greater than 44.6 µg/mL; for `CC(C)CNC(=O)C(=O)NCC1OCCCN1S(=O)(=O)c1cccs1` (stereo not drawn), greater than 58.4 µg/mL.
For `COc1ccccc1CNC(=O)CN(C)CC(=O)Nc1ccc(F)c(F)c1F` the value was greater than 59.3 µg/mL.
To `Cn1c(CNC(=O)c2ccccc2F)cc2ccccc21` belongs 10.1 µg/mL (≈ 35.8 µM).
As for `Cn1c(C2CCCCC2)nc2c1c(=O)[nH]c(=O)n2Cc1ccccc1`, the solubility (kinetic) amounted to 16.7 µg/mL (≈ 49.3 µM).
To `Cl.c1ccc(OCC2CCNCC2)nc1` belongs 33.7 µg/mL; to `COc1cc(C)c(Cl)cc1S(=O)(=O)NCc1ccccn1`, 34.5 µg/mL (≈ 106 µM); to `COc1ccc(OC)c(NC(=O)Nc2ccc3c(c2)OCO3)c1`, 2.3 µg/mL (≈ 7.27 µM).
To `CC(=O)Nc1ccc(S(=O)(=O)N2CCNC(=O)C2)cc1` belongs greater than 44.6 µg/mL.
To `COc1ccc(/C=C/C(=O)N2CCNC(=O)C2)c(OC)c1` belongs 41.3 µg/mL (≈ 142 µM); to `C(=N\NC1=NCCN1)/c1ccncc1.Cl`, greater than 39.3 µg/mL.
Take `O=C(CN1CCCCCC1)Nc1ccccc1OC(F)F`: the solubility (kinetic) turned out to be 44.5 µg/mL (≈ 149 µM).
For `CCN1c2ccccc2S(=O)(=O)c2ccccc21` the value was 15.6 µg/mL (≈ 60.2 µM); for `O=C1OCC2=C1C(c1ccc(F)cc1)CC(=O)N2c1ccc(F)cc1` (stereo not drawn), greater than 51.2 µg/mL; for `CC1CCc2onc(C(=O)NCc3ccco3)c2C1` (stereo not drawn), 22.6 µg/mL (≈ 86.8 µM).
For `O=C(COc1ccccc1)Nc1cc(Cl)ccc1Cl` the value was less than 0.6 µg/mL; for `COc1ccccc1CN(C)C(=O)c1cnc(C)cn1`, greater than 40.7 µg/mL; for `CC1(C)CC(=O)c2sc(NS(=O)(=O)c3ccccc3)nc2C1`, 48.9 µg/mL (≈ 145 µM).
For `COc1ccc(OC)c(Nc2c3ccccc3nc3ccccc23)c1`, the kinetic solubility was determined as 12.2 µg/mL (≈ 36.9 µM).
For `O=C(O)c1cc(Oc2ccc(C(F)(F)F)cc2Cl)ccc1[N+](=O)[O-]` the value was greater than 54.2 µg/mL; for `NC(=O)CSc1nccn1Cc1ccc2c(c1)OCO2`, greater than 43.7 µg/mL; for `O=C(Nc1ccccc1)c1ccc(-c2ccc([N+](=O)[O-])cc2)o1`, 7.4 µg/mL (≈ 24 µM).
To `Cc1cc(C)cc(N2C(=O)CSC2c2ccccn2)c1` (stereo not drawn) belongs greater than 42.7 µg/mL; to `CSc1ncccc1C(=O)OCC(=O)N1CCCC1`, greater than 42.1 µg/mL; to `COCCN(CCOC)S(=O)(=O)c1ccc(Cl)nc1`, 45.3 µg/mL (≈ 147 µM).
Take `O=C(NC(N1CCOCC1)C(Cl)(Cl)Cl)c1ccc(F)cc1` (stereo not drawn): the solubility (kinetic) came out at 41.1 µg/mL (≈ 116 µM). The solubility kinetic values of the last two compounds are within 1.5-fold of each other.
For `CNC(=O)/C(=C\c1ccco1)NC(=O)c1ccco1` the value was greater than 39 µg/mL; for `O=C(Nc1ccccc1)C1CCN(C(=O)c2ccco2)CC1`, greater than 44.8 µg/mL; for `COc1cccc(CC(=O)NCCCSc2ccccc2)c1`, 47.3 µg/mL (≈ 150 µM).
Regarding `CCC(=O)Nc1cc2c3c(c1)CCN3C(=O)CC2`, the kinetic solubility worked out at 35.3 µg/mL (≈ 144 µM).
To `CN(CC1COc2ccccc2O1)C(=O)c1ccc(N(C)C)cc1` (stereo not drawn) belongs greater than 49 µg/mL; to `COc1ccc(OC)c(NC(=S)N2CCCC2)c1`, greater than 40 µg/mL.
To `Cc1ccccc1-n1c(=S)[nH]c2nc3c(cc2c1=O)COC(C)(C)C3` belongs 30.7 µg/mL (≈ 86.9 µM); to `C/C(=N\O)c1ccc(Cl)c(Cl)c1`, 11.9 µg/mL (≈ 58.3 µM); to `CCOc1cc(/C=C/C(=O)OCC(=O)NCC2CCCO2)cc(Cl)c1OC` (stereo not drawn), 52.7 µg/mL (≈ 132 µM).
To `CCOCCCNC(=O)N[C@H](C(=O)OC)C(C)CC` (stereo partly drawn) belongs greater than 41.2 µg/mL.
For the compound `Cc1ccc(-c2csc(NC(=O)CN3CC(C)OC(C)C3)n2)cc1` (stereo not drawn), the kinetic solubility came out at 29.5 µg/mL (≈ 85.4 µM).
In turn, `CC1c2cc3c(cc2CCN1CC(=O)Nc1ccccc1)OCCCO3` (stereo not drawn) displayed a kinetic solubility of 3.9 µg/mL (≈ 11.1 µM).
As to `N#C/C(=C\c1ccc(O)c(O)c1)C(=O)Nc1cccc2ncccc12`, the solubility (kinetic) was 20 µg/mL (≈ 60.4 µM).
To `Cc1ccccc1C(=O)c1cccn1CC(=O)N1CCCCC1` belongs greater than 46.6 µg/mL; to `COc1cc(CNCC2CCCO2)ccc1OCC(N)=O.Cl` (stereo not drawn), 49 µg/mL; to `CC(C)Nc1nc(SC(C)C(=O)Nc2ccccc2)nc(N(C)C)n1` (stereo not drawn), 26.5 µg/mL (≈ 73.5 µM).
For `O=C(Nc1ccc(F)cc1)c1cc(Cl)sc1Cl` the value was 1.9 µg/mL (≈ 6.55 µM).
For `CC1CCCCC1NC(=O)COC(=O)c1ccc2c(=O)n3c(nc2c1)CCC3` (stereo not drawn) the value was 22.2 µg/mL (≈ 57.9 µM).
The compound `CCOC(=O)Cc1csc(SCC(=O)N2CCN(c3ccccc3)CC2)n1` had a solubility (kinetic) greater than 60.8 µg/mL.
For `O=C(OCCN1CCN(C2=NS(=O)(=O)c3ccccc32)CC1)c1ccccc1F` the value was 57.3 µg/mL (≈ 137 µM); for `N#Cc1cc(N2CCOCC2)nc2ccccc12`, 15.3 µg/mL (≈ 63.9 µM); for `COc1ccccc1C(=O)NC(=O)COC(=O)c1nccnc1N`, greater than 49.5 µg/mL.
Consider `NC(=S)C(c1ccccc1)c1ncc(C(F)(F)F)cc1Cl` (stereo not drawn), for which the kinetic solubility came out at 41.7 µg/mL (≈ 126 µM).
On to `Cc1c(NS(=O)(=O)c2cccs2)cccc1-c1nc2cccnc2s1`, for which the kinetic solubility amounted to 2.4 µg/mL (≈ 6.19 µM). Against the preceding compound, the solubility kinetic is about 17-fold lower.
In turn, `Cc1ccccc1CNCCCSc1ncccn1.Cl` gave a solubility (kinetic) of 35.2 µg/mL.
For `O=C(Cc1cccc2ccccc12)NCCc1ccccc1` the value was 7.1 µg/mL (≈ 24.5 µM); for `O=C(Nc1ccc(-c2ccccc2)cc1)c1ccccc1`, 1 µg/mL (≈ 3.66 µM).
For `Cc1ccccc1N1CCN(S(=O)(=O)c2cccs2)CC1` the value was 4 µg/mL (≈ 12.4 µM); for `Cc1c(C(=O)NCCSCc2ccccc2)cccc1[N+](=O)[O-]`, 46.6 µg/mL (≈ 141 µM).
